We go through one compound from patent US7985876B2, “Substituted dibenzoic acid derivatives and use thereof” (Bayer Schering Pharma Aktiengesellschaft, priority 2007, dated 2011).

One test concerns saphenous artery rings. Put plainly: Vasorelaxant effect in vitro (phenylephrine-contracted artery rings). It counts as cell-based, Rabbits. To be noted: Oryctolagus cuniculus; rabbit saphenous artery rings, contraction induced by phenylephrine. As to the method: Rabbits are anesthetized and sacrificed by intravenous injection of thiopental sodium (about 50 mg/kg) and exsanguinated. The saphenous artery is removed and divided into rings 3 mm wide. The rings are mounted singly on in each case a pair of triangular hooks open at the end and made of 0.3 mm-thick special wire (Remanium®). Each ring is placed under an initial tension in 5 ml organ baths with Krebs-Henseleit solution which is at 37° C., is gassed with 95% O2/5% CO2 and has the following composition: NaCl 119 mM; KCl 4.8 mM; CaCl2×2H2O 1 mM; MgSO4×7H2O 1.4 mM; KH2PO4 1.2 mM; NaHCO3 25 mM; glucose 10 mM; bovine serum albumin 0.001%. The force of contraction is detected with Statham UC2 cells, amplified and digitized via A/D converters (DAS-1802 HC, Keithley Instruments, Munich) and recorded in parallel on chart recorders. Contractions are induced by addition of phenylephrine.
After several (generally 4) control cycles, the substance to be investigated is added in each further run in increasing dosage, and the height of the contraction achieved under the influence of the test substance is compared with the height of the contraction reached in the last preceding run. The concentration necessary to reduce the contraction reached in the preceding control by 50% is calculated from this (IC50). The standard application volume is 5 μl. […]

The target of test [1] is T1, Heme-containing sGC (recombinant soluble guanylate cyclase) (Rattus norvegicus, UniProt P20595).
T1 construct: made in house
T1 sequence (P20595 1-619): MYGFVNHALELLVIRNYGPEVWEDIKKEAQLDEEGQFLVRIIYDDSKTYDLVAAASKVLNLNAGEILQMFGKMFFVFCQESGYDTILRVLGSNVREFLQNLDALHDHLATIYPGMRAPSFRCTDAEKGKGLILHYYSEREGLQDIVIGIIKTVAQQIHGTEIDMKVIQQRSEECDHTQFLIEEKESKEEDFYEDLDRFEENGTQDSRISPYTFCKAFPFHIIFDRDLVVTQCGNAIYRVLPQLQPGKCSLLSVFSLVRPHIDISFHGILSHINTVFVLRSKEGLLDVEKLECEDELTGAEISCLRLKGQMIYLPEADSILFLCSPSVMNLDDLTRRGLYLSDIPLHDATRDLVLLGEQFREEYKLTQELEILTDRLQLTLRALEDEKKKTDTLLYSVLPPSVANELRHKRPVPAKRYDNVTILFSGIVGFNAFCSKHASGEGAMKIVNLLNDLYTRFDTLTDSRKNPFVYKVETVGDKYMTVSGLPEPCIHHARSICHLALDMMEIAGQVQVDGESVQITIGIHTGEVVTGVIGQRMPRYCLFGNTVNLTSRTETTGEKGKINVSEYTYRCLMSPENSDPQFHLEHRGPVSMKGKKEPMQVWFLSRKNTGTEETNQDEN
T1 sequence (P19686 1-690 partner): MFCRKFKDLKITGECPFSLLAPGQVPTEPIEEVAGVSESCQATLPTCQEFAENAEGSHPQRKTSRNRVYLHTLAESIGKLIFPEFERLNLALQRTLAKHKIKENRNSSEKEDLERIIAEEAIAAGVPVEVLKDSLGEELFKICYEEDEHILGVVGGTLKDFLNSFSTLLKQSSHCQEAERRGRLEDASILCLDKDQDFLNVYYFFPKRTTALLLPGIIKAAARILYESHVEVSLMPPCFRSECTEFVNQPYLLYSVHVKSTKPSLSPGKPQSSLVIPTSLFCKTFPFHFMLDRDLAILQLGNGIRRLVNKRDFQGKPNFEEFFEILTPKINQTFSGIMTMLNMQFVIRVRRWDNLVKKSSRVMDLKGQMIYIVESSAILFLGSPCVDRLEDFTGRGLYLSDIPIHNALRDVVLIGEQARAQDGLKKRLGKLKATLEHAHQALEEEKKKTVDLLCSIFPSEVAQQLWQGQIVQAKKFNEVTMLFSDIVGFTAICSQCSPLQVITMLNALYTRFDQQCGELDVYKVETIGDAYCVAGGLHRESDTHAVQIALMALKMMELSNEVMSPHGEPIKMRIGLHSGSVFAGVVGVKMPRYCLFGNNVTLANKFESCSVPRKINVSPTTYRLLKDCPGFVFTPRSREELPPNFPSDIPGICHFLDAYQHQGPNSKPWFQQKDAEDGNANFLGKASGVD
Nature of the test: Stimulation of recombinant soluble guanylate cyclase (sGC) in vitro, heme-containing enzyme. It counts as biochemical. The source says:
Hoenicka, E. M. Becker, H. Apeler, T. Sirichoke, H. Schroeder, R. Gerzer and J.-P. Stasch, “Purified soluble guanylyl cyclase expressed in a baculovirus/Sf9 system: Stimulation by YC-1, nitric oxide, and carbon oxide”, J. Mol. Med. 77 (1999), 14-23. The heme-free guanylate cyclase is obtained by adding Tween 20 to the sample buffer (0.5% in the final concentration).
(§1) The activation of sGC by a test substance is reported as n-fold stimulation of the basal activity.

Test [2] concerns the target T2, Heme-free sGC (recombinant soluble guanylate cyclase) (Rattus norvegicus, UniProt P20595).
T2 construct: made in house
T2 sequence (P20595 1-619): T1 sequence (P20595 1-619)
T2 sequence (P19686 1-690 partner): T1 sequence (P19686 1-690 partner)
Put plainly: Stimulation of recombinant soluble guanylate cyclase (sGC) in vitro, heme-free enzyme. It counts as biochemical. The protocol: Investigations on the stimulation of recombinant soluble guanylate cyclase (sGC) by the compounds according to the invention with and without sodium nitroprusside, and with and without the heme-dependent sGC inhibitor 1H-1,2,4-oxadiazole-(4,3a)-quinoxalin-1-one (ODQ) are carried out by the method described in detail in the following reference: M. Hoenicka, E. M. Becker, H. Apeler, T. Sirichoke, H. Schroeder, R. Gerzer and J.-P. Stasch, “Purified soluble guanylyl cyclase expressed in a baculovirus/Sf9 system: Stimulation by YC-1, nitric oxide, and […]”, J. Mol. Med. 77 (1999), 14-23. The heme-free guanylate cyclase is obtained by adding Tween 20 to the sample buffer (0.5% in the final concentration).
as §1

The compound `O=C(O)c1ccc(CCC(/C=C/c2cc(F)ccc2OCc2ccc(C(F)(F)F)cc2)CCc2ccc(C(=O)O)cc2)cc1` [Example 1, 4-[(4E)-3-[2-(4-Carboxyphenyl)ethyl]-5-(5-fluoro-2-{[4-(trifluoromethyl)benzyl]oxy}phenyl)pent-4-en-1-yl]benzoic acid] showed a concentration for half-maximal inhibition (IC50) in the test on saphenous artery rings of 250 nM. The “Stimulation (n-fold) heme-containing sGC, +0.1 μM DEA/NO” value was 24.1 n-fold in test [1] (0.01 μM Example 1), 25.5 n-fold in test [1] (0.1 μM Example 1), 33.4 n-fold in test [1] (1 μM Example 1) and 41.5 n-fold in test [1] (10 μM Example 1). Further, the “Stimulation (n-fold) heme-containing sGC, +10 μM ODQ” value in test [1] (0.01 μM Example 1) came out at 7.0 n-fold; in test [1] (0.1 μM Example 1), 16.2 n-fold; in test [1] (1 μM Example 1), 60.6 n-fold; in test [1] (10 μM Example 1) it was 92.2 n-fold. Besides, the “Stimulation (n-fold) heme-containing sGC, basal” value is on record as 1.3 n-fold in test [1] (0.01 μM Example 1), 1.9 n-fold in test [1] (0.1 μM Example 1), 6.4 n-fold in test [1] (1 μM Example 1) and 11.0 n-fold in test [1] (10 μM Example 1). Also, in test [1] (combination of Example 1 and DEA/NO), the “Synergy with the NO donor DEA/NO on sGC stimulation” value is “no synergistic effect”. Further, the “Stimulation (n-fold) heme-free sGC, basal” value in test [2] (0.01 μM Example 1, heme-free by 0.5% Tween 20) worked out at 1.0 n-fold; in test [2] (0.1 μM Example 1, heme-free by 0.5% Tween 20), 2.3 n-fold; in test [2] (1 μM Example 1, heme-free by 0.5% Tween 20) it was 9.1 n-fold; in test [2] (10 μM Example 1, heme-free by 0.5% Tween 20), 16.7 n-fold.

The term IC50 denotes the point on the concentration scale where inhibition reaches its midpoint. Low values mean inhibition by little substance, high ones a need for much substance.
